Data: US7977282B2, “Chemical amendments for the stimulation of biogenic gas generation in deposits of carbonaceous material” (Luca Technologies, Inc., priority 2006, dated 2011)
Entries after “also recorded” stand apart in the source; their conditions may differ.

How the values were obtained:
[1] = test system: microorganisms present in the sample (Monarch coal seam coal and formation water); test: Biogenic methane generation from Monarch coal samples with hydrogen, phosphorous compound and ammonia amendments; conditions: different coal and formation water sample; no ammonium and phosphate amendment
Experimental: Experiments were conducted to compare biogenic methane generation from coal samples after introducing an amendment of hydrogen gas, a phosphorous compound, and ammonia. For each experiment, methane generation from coal samples from the Monarch coal seam in the Powder River Basin in Wyoming was periodically measured over the course of about 627 days. Each anaerobic 5 gram coal sample was placed in a nominal 36.5 ml serum bottle with 15 mL of anaerobic water that was also taken from the formation. The coal and formation water were placed in the serum bottle while working in an anaerobic glove bag. The headspace in the bottle above the sample was flushed with a mixture of N2 and CO2 (95/5).
The methane levels in the headspace above the samples was periodically measured and recorded. The methane was measured by running samples of the headspace gases through a gas chromatograph equipped with a thermal conductivity detector.

[2] = test system: microorganism consortia in coal samples
From the text: Rollover is a condition where the rate of biogenic methane production starts to plateau as the in situ methane concentration reaches a certain level. In many instances, the rate flattens to zero, and the methane concentration remains constant over time. The rollover point (i.e., the point where the methane concentration begins to break from a monotonically increasing state) can vary between microorganism consortia, but appears to be reached in almost all unamended samples of carbonaceous material that have been examined to date.

[3] = test system: methanogenesis in Powder River Basin coal and formation water; test: Single and multiple nutrient amendments, Powder River Basin coal (FIG. 9); format: cell-based; conditions: phosphate 5 mg/L, yeast extract about 500 mg/L, BESA about 10 mM
Experimental: Two comparative groups were also measured: (1) Samples of the Power River Basin coal to which no amendments were added (unamended), and (2) Samples of the PRB coal to which bromoethanesulfonic acid (BESA), a known methanogen-specific inhibitor, was added.
The headspace in the bottle above the sample was exchanged with helium.
The amendments were added to the sample bottles until a target concentration of the amendment was reached. […] For the yeast extract only amended, Difco® yeast extract from Becton Dickinson and Company was added to the sample bottles until a concentration of about 500 mg/L was reached.
Finally, for the samples used in the comparative example where methane production from methanogenesis was inhibited, BESA was added to the sample bottles until it reached a concentration of about 10 mM.
Methane production from the samples were measured and plotted as the percentage of methane in the headspace above the liquid in the serum bottle. Three sample bottles were prepared for each amendment, and the methane concentrations were measured in triplicate and averaged.

[4] = test system: coal formation in Wyoming's Powder River Basin
Experimental: FIGS. 14A-B show graphs of measurements of methane gas production over time from a coal formation in Wyoming's Powder River Basin before and after an amendment of phosphate and filtered water was introduced to the formation.
The gas well was then treated with an amendment of phosphate and filtered water for about 1.2 months (i.e., late August to early October). The amendment included the introduction of an aqueous solution of 9.5×10^−5 M potassium phosphate to an underground natural gas formation at a rate of about 14,400 L/day for each day of the treatment period. Following the treatment period with the phosphorous amendment, the gas well was sealed for a period of about 2 months (i.e., early October to early December) before the measurements of gas were measured during the post-amendment period (the dwell period).
Then the same phosphorous amendment as described for FIG. 14A was added to the formation for a 1.2 month period (i.e., late August to early October) followed by an approximately 2 month dwell period.

[5] = test system: microorganisms in Monarch coal, formation water and cell concentrate; conditions: 18.0 mM acetate
Experimental: Experiments were conducted to measure the effects of acetate amendments on methane production from samples of carbonaceous materials. The carbonaceous materials used in these experiments were coal samples taken from underground coal beds at the Monarch coal site. […] The cell concentrate consisted of cells from about 6.6 L of formation water added to 15 mL of formation water.
In a first set of samples, the acetate amendment included adding an aqueous sodium acetate solution to the sample bottles to give the samples an 18.0 mM acetate concentration (an average measured concentration). A second set of control samples were prepared in the same manner except for lacking the acetate amendment. Methane levels (measured as a mol. % methane in the headspace of the sample bottle) were periodically measured in both the amendment and control samples over the course of 90 days.

[6] = test system: methanogenesis in produced water and oil; test: Phosphorous compound amendments in oil samples, field in Texas (FIG. 10); format: cell-based; conditions: 45° C., 14 days, oil from Texas field
Experimental: Produced water and oil samples were collected directly from well heads after passing produced fluids through a portable anaerobic and disinfected oil-water separator. Strict anoxic techniques were used. The water samples were maintained at field temperature prior to use in experiments. Twenty mls of produced water and 0.1 ml of oil were distributed into sterile 36.5 ml serum bottles contained within a disinfected anaerobic glove bag. The anaerobic glove bag contained a filtration apparatus for removing airborne microbial contaminants. […] Incubation temperature was 45° C., the approximate in-situ temperature. Incubation period prior to headspace gas analysis was 14 days. The samples were prepared with the following amendments: […] Final bottle concentration −0.5 mg/L as Phosphorous; (2) Minerals (100× less the stock concentration in Table 2); (3) Metals (300× less the stock concentration in Table 1); (4) Minerals+Metals+Yeast extract (25 mg/L); (5) Minerals+Metals+Vitamins (100× less the stock concentration in appendix 1)+Yeast extract (25 mg/L). In addition, two comparative experiments were run for: […] The experimental bottles were placed into a heated water bath maintained at the field temperature during gas analysis to avoid temperature fluctuations. […] The methane measurements, expressed as the percentage of methane in the headspace above the sample bottles, were plotted in FIG. 10.

[7] = test system: methanogenesis and acetate production in produced water and oil; test: Phosphorous compound amendments in oil samples, field in Montana (FIGS. 11A-B); format: cell-based; conditions: oil from Montana field
Experimental: Produced water and oil samples were collected directly from well heads after passing produced fluids through a portable anaerobic and disinfected oil-water separator. Strict anoxic techniques were used. The water samples were maintained at field temperature prior to use in experiments.
Twenty mls of produced water and 0.1 ml of oil were distributed into sterile 36.5 ml serum bottles contained within a disinfected anaerobic glove bag. The anaerobic glove bag contained a filtration apparatus for removing airborne microbial contaminants. […] Incubation temperature was 45° C., the approximate in-situ temperature. Incubation period prior to headspace gas analysis was 14 days. The samples were prepared with the following amendments: (1) Sodium phosphate. Final bottle concentration −0.5 mg/L as Phosphorous; (2) Minerals (100× less the stock concentration in Table 2); (3) Metals (300× less the stock concentration in Table 1); (4) Minerals+Metals+Yeast extract (25 mg/L); (5) Minerals+Metals+Vitamins (100× less the stock concentration in appendix 1)+Yeast extract (25 mg/L). […]
The experimental bottles were placed into a heated water bath maintained at the field temperature during gas analysis to avoid temperature fluctuations. […] The methane measurements, expressed as the percentage of methane in the headspace above the sample bottles, were plotted in FIG. 10. […]

[8] = test system: methanogenic consortia; test: Enrichment transfer of methanogenic consortia on coal (FIG. 13); format: cell-based
Experimental: With the discovery that methanogenic consortia are commonly present in formation waters, a significant research effort, both laboratory and field oriented, was directed at identify methodologies for enhancing their activities in-situ. To this end, methanogenic consortia capable of rapid methanogenesis on coal from the Powder River Basin have been obtained using an enrichment procedure wherein a small volume of an active consortium is added to a “sterile” slurry bottle (in this case, autoclaved Tongue River coal and filter sterilized Tongue River formation water). The consortium is allowed to grow and metabolize, then the dilution series is repeated. This enrichment procedure appears to favor the growth of microorganisms more capable of metabolizing coal to methane. […] Very rapid methanogenesis was observed after the second transfer with rates 57 times greater on average relative to the parent samples (leftmost bars). The two exceptions to the trend were the last two sample sets on the far right of FIG. 13. These were cases in which methanogenesis was inhibited in the parental bottles intentionally with BESA and unintentionally in bottles that received solvent (pyridine) extracts of coal.

Compound: [HH] [H2, hydrogen]
- effect on coal metabolism to methane [1]: stimulated coal metabolism to methane

Compound: Cl.N [ammonium chloride]
- initial rate of methane production ([2]; 25 mg/L nitrogen, FIG. 7): initially greater than for the unamended samples or samples with other types of amendments
- peak methane level ([2]; 25 mg/L nitrogen, FIG. 7): exceeded the peak plateau levels in the unamended samples
- methane level versus unamended samples / plateau ([2]; about day 600, FIG. 7): about the same as those measured in the unamended samples

Compound: O=P(O)(O)O [potassium phosphate]
- methane production, percentage of methane in headspace [3]: rates and yields of methanogenesis were highest
- methane level higher than samples without phosphate ([2]; 5 mg/L, after 600 days, FIG. 7): about 43%
- methane level in headspace ([2]; 5 mg/L, after 600 days, FIG. 7): about 4.3 mol. %
- methane concentration over time, rollover ([2]; just over 600 days, FIG. 8): no plateau was observed; also recorded: significantly higher methane levels than samples treated with a minerals amendment or the samples that were unamended
- natural gas production rate relative to baseline period ([4]; FIG. 14A): about double the average production rate during the baseline period
- natural gas production rate following treatment and dwell periods ([4]; FIG. 14A, 9.5×10^−5 M, about 14,400 L/day for about 1.2 months, about 2 months dwell): over 9 mcf/day
- natural gas production rate following treatment ([4]; FIG. 14B, declining formation): jump in the natural gas product rate

Compound: CC(=O)[O-].[Na+] [sodium acetate]
- activation period before methane generation [5]: about 65 days
- methane in the headspace of the sample bottle ([5]; 90th day): over 12 mol. %

Compound: O=P(O)(O)O [sodium phosphate]
- methanogenesis, percentage of methane in headspace [6]: comparable stimulation relative to more complex nutrient mixtures
- rate of methanogenesis ([7]; FIG. 11A): highest rates of methanogenesis
- acetate production ([7]; FIG. 11B): stimulated acetate production relative to the unamended controls

Compound: bromoethanesulfonic acid [BESA, reference compound]
- methanogenesis in parental bottles [8]: inhibited
- methane production, percentage of methane in headspace [3]: did not accumulate
- methanogenesis, percentage of methane in headspace [6]: below detection
